Measured values taken from the OPERA property sets (Mansouri et al. 2018).

Conditions: not given

SMILES	melting point [°C]	boiling point [°C]	log10 vapour pressure (mmHg)	log10 Henry constant (atm·m³/mol)	log10 Koc (L/kg)	ready biodegradability	log10 Koa
C[C@H]1O[C@@H](O[C@H]2[C@@H](O)C[C@H](O[C@H]3[C@@H](O)C[C@H](O[C@H]4CC[C@@]5(C)[C@H](CC[C@@H]6[C@@H]5CC[C@]5(C)[C@@H](C7=CC(=O)OC7)CC[C@]65O)C4)O[C@@H]3C)O[C@@H]2C)C[C@H](O)[C@@H]1O	256	–	–	–	–	–	–
c1csc(-c2ccc(-c3cccs3)s2)c1	93.5	–	–	–	–	–	–
CCOS(C)(=O)=O	–	214	-0.686	–	–	–	–
CCCCCCC(C)O (racemic)	3.5	179	–	–	–	–	–
COC(=O)c1ccccc1O	-8	223	-1.46	–	–	–	–
CCC(=O)Nc1nc(C)c(Cl)s1	159	–	–	–	–	–	–
O=C(c1ccccc1)c1c(F)c(F)c(F)c(F)c1F	37	–	–	–	–	–	–
O=S1(=O)OCCO1	99	–	–	–	–	–	–
CCC(=O)OCCC(C)C	–	160	–	–	–	–	–
CC(C)C(C)N (centres undefined)	-50	85.5	–	–	–	–	–
CNC(N)=O	103	–	–	–	–	–	–
COc1ccc2c(c1OC)C(=O)OC2	102	–	–	–	–	–	–
Cc1c(Br)cc(Br)c(O)c1Br	84	–	–	–	–	–	–
O=C(Cl)C(Cl)(Cl)Cl	–	118	1.33	-3.29	–	–	–
O=C1CN(N=Cc2ccc([N+](=O)[O-])o2)C(=O)N1	263	–	–	–	–	–	–
COc1ccc(/C=C/c2cc(OC)cc(=O)o2)cc1	156	–	–	–	–	–	–
C=C[C@H]1CNCC[C@H]1CCC(=O)c1ccnc2ccccc12	59	–	–	–	–	–	–
CCc1ccc2cc3ccccc3cc2c1	152	–	-5.28	–	–	–	–
Cc1cccc(S)c1	-20	195	-0.257	–	–	–	–
CCCC1COC(Cn2cncn2)(c2ccc(Cl)cc2Cl)O1 (centres undefined)	–	–	-6.38	–	3.39	–	–
COc1ccc(OC)c(N)c1	82.5	270	–	–	–	–	–
C[Si](C)(C)O[Si](C)(O[Si](C)(C)C)O[Si](C)(C)C	–	–	-1.4	–	–	–	–
Ic1cccc2ccccc12	4.2	302	–	–	–	readily biodegradable	–
O=C(O)c1cc(O)cc(C(=O)O)c1	293	–	–	–	–	–	–

SMILES	melting point [°C]	boiling point [°C]	log10 vapour pressure (mmHg)	log10 Henry constant (atm·m³/mol)	log10 Koc (L/kg)	ready biodegradability	log10 Koa
CCNc1nc(Cl)nc(NC(C)(C)C)n1	178	–	-5.95	–	2.32	–	–
CC(Cc1ccccc1)c1ccccc1 (centres undefined)	52	280	–	–	–	–	–
Cc1cccc(-c2cccc(C)c2)c1	9	280	–	–	–	–	–
FCF	-136	-51.6	4.1	–	–	–	–
N=C(Nc1ccccc1)Nc1ccccc1	150	–	–	–	–	not readily biodegradable	–
CC(C)CCON=O	–	99.2	–	–	–	–	–
O=C1/C(=C/c2ccc(O)c(O)c2)Oc2cc(O)ccc21	303	–	–	–	–	–	–
CC(O)COCC(C)O (centres undefined)	–	233	–	–	–	not readily biodegradable	–
O=C(NO)c1ccccc1O	168	–	–	–	–	–	–
CN(C)CCC=C1c2ccccc2CCc2ccccc21	196	–	–	–	–	–	–
COc1cc(CNC(=O)CCCC/C=C/C(C)C)ccc1O	65	–	–	–	–	–	–
CCN(CC)c1ccc2c(-c3ccccc3C(=O)O)c3ccc(N(CC)CC)cc3[o+]c2c1.[Cl-]	165	–	–	–	–	–	–
Fc1ccc(Oc2ccnc3cc(Cl)cc(Cl)c23)cc1	107	–	-6.82	–	–	–	–
Oc1ccc(-c2ccccc2)cc1Cl	77	–	–	–	–	–	–
C=C[Si](C)(C)C	–	55	–	–	–	–	–
Cc1ccnc(N)n1	160	–	–	–	–	–	–
CC(=O)O[C@]1(C(C)=O)CC[C@H]2[C@@H]3C[C@H](C)C4=CC(=O)C=C[C@]4(C)[C@@]3(F)[C@@H](O)C[C@@]21C	298	–	–	–	–	–	–
CCCC(=O)Nc1ccc(O)cc1	140	–	–	–	–	–	–
Cc1cccc(OP(=O)(Oc2cccc(C)c2)Oc2cccc(C)c2)c1	25.5	–	–	-4.08	–	readily biodegradable	–
O=C(OC(=O)C(c1ccccc1)c1ccccc1)C(c1ccccc1)c1ccccc1	98	–	–	–	–	–	–
CCCCCCCOCC	-68.3	166	–	–	–	–	–
c1cncc(-c2cccnc2)c1	68	292	–	–	–	–	–
CCCC(N)C(=O)O (racemic)	305	–	–	–	–	–	–
CCCC(Br)CBr (centres undefined)	–	–	0.153	–	–	–	–

SMILES	melting point [°C]	boiling point [°C]	log10 vapour pressure (mmHg)	log10 Henry constant (atm·m³/mol)	log10 Koc (L/kg)	ready biodegradability	log10 Koa
CSSC	-85	110	1.46	-2.92	–	not readily biodegradable	–
Nc1nc2nn[nH]c2c(=O)[nH]1	300	–	–	–	–	–	–
Nc1ccccc1-c1ccccc1N	81	–	-5.57	–	–	–	–
CC(C)CCSCCC(C)C	-74.6	211	-0.497	–	–	–	–
C=CC(=O)Cl	–	75.5	–	–	–	–	–
CC(Cl)Cl	-96.9	57.4	2.36	-2.25	1.48	not readily biodegradable	2.41
O=[N+]([O-])c1cc(C(F)(F)F)cc([N+](=O)[O-])c1Cl	57	–	–	–	–	–	–
CCCCOC(=O)c1ccc(O)cc1	68.5	–	–	–	–	–	–
CC(C)C=O	-65.9	64.5	2.24	–	–	readily biodegradable	–
O=C(OCC(O)CO)c1ccccc1Nc1ccnc2cc(Cl)ccc12 (centres undefined)	170	–	–	–	–	–	–
C1CCCSCC1	0.5	174	–	–	–	–	–
Cc1c(C)c2ccccc2c2ccccc12	144	–	–	–	–	–	–
CCOC(=O)C(=O)Nc1ccccc1	65.5	280	–	–	–	–	–
CCCCCCCCC(=O)OCC	-36.7	227	–	–	–	–	–
CC(C)=CCC1=C(O)C(=O)c2ccccc2C1=O	140	–	–	–	–	–	–
COC(=O)Nc1nc2cc(C(=O)C3CC3)ccc2[nH]1	250	–	–	–	–	–	–
Nc1c(Cl)c(Cl)nc(C(=O)O)c1Cl	218	–	-10.1	–	1.3	not readily biodegradable	–
C=C(C)C(=O)OCCCCOC(=O)C(=C)C	226	–	–	–	–	–	–
CC(=O)C(C)(C)O	–	140	0.792	–	–	–	–
CCc1nc(CC)nc(NS(=O)(=O)c2ccc(N)cc2)n1	187	–	–	–	–	not readily biodegradable	–
C1COCO1	-95	78	1.9	-4.61	–	–	–
O=C(O)C(O)c1ccc(Br)cc1 (centres undefined)	118	–	–	–	–	–	–
CCc1nc(C)cnc1C	–	180	–	–	–	–	–
C[C@@H]1C[C@H]2[C@@H]3C[C@H](F)C4=CC(=O)C=C[C@]4(C)[C@@]3(F)[C@@H](O)C[C@]2(C)[C@H]1C(=O)CO	242	–	–	–	–	–	–

SMILES	melting point [°C]	boiling point [°C]	log10 vapour pressure (mmHg)	log10 Henry constant (atm·m³/mol)	log10 Koc (L/kg)	ready biodegradability	log10 Koa
C=CCOC(=O)CCC	-80	142	–	–	–	–	–
CC(=O)[C@@H]1CC[C@H]2[C@@H]3CCC4=CC(=O)CC[C@]4(C)[C@H]3C(=O)C[C@]12C	172	–	–	–	–	–	–
C[C@H](O)[C@H](O)[C@@H](O)[C@@H](O)C=O	135	–	–	–	–	–	–
N#CCCNc1ccccc1	52.5	–	–	–	–	–	–
CO[Si](CCCN=C(N(C)C)N(C)C)(OC)OC	–	–	–	–	–	not readily biodegradable	–
C1CC2CC1C1OC21 (centres undefined)	123	–	–	–	–	–	–
Clc1cc(Cl)nc(-c2ccccc2)n1	96.9	–	-4.05	–	–	–	–
O=[N+]([O-])CCO	-80	194	–	–	–	–	–
N#Cc1ccc(Cl)cc1	95	223	–	–	–	–	–
CCCCCCC(C)O (centres undefined)	–	–	-0.616	-3.91	–	readily biodegradable	–
COc1cc(CCC(C)=O)ccc1O	40.5	–	–	–	–	–	–
COC(=O)C1(S(=O)(=O)c2ccc(Br)cc2)CCCC1	104	–	–	–	–	–	–
Cc1cc(-n2nc3ccc(Cl)cc3n2)c(O)c(C(C)(C)C)c1	–	–	–	–	–	not readily biodegradable	–
CCOS(=O)(=O)C(F)(F)F	–	115	–	–	–	–	–
BrC1CCCCC1	-56.5	166	–	–	–	–	–
Cc1cc2ccccc2n1C	56.5	–	–	–	–	–	–
CC[C@@]12CCCN(CCc3c([nH]c4ccccc34)CC1)C2	146	–	–	–	–	–	–
CCN(CC)C1CCCCC1	–	193	–	–	–	–	–
BrCI	–	140	–	–	–	–	–
N#Cc1ccccc1CCl	61	252	–	–	–	–	–
CN(C)C(=O)COC(=O)c1ccccc1	81.5	–	–	–	–	–	–
COC(=O)c1ccccc1I	–	280	–	–	–	–	–
CCOC(=O)CC[C@H](N)C(=O)OCC.Cl	109	–	–	–	–	–	–

Same assay, conditions: fish

SMILES	log10 biotransformation half-life (days)	log10 BCF
CCCC1COC(Cn2cncn2)(c2ccc(Cl)cc2Cl)O1 (centres undefined)	0.7	–
N=C(Nc1ccccc1)Nc1ccccc1	–	1.3
CC(O)COCC(C)O (centres undefined)	–	0.66
Clc1ccc(-c2c(Cl)c(Cl)cc(Cl)c2Cl)c(Cl)c1Cl	2.5	–
COP(=S)(OC)Oc1ccc(S(C)(=O)=O)c(C)c1	-0.03	0.51
Clc1ccc(Oc2ccc(Cl)c(Cl)c2)cc1Cl	–	4.51
